The values below come from publication PMC5755735, “Discovery of indolylpiperazinylpyrimidines with dual-target profiles at adenosine A2A and dopamine D2 receptors for Parkinson's disease treatment” (PLoS ONE, 2018).

Each structure is given as a SMILES string. Several values for one entry are separate records, joined by “and”; a condition that tells them apart may be missing. Identical values can stand only once. A value given as a limit tells only on which side of the number the result lay.

The target in data set [1] is T1, human A1 receptors expressed in CHO cells (Homo sapiens, UniProt P30542).
T1 sequence (P30542 1-326): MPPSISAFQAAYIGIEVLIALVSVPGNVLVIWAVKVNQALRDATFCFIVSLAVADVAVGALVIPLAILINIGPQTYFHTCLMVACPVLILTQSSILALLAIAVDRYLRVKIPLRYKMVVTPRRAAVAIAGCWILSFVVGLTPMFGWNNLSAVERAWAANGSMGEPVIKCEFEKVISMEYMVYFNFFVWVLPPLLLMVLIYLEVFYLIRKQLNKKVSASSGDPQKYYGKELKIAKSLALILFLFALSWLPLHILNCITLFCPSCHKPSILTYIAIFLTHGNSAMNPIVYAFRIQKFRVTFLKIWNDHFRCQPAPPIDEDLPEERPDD
In words: competition binding at human A1 adenosine receptors ([3H]CCPA displacement). The conditions noted are these: displacement of [3H]CCPA, 95% confidence limits, n = 3–6, read-out: Ki hA1. Here is the method:
(§1) A two-step procedure was adopted to prepare membrane for radioligand binding from cells stably transfected with human adenosine receptor subtypes (hA1, hA2A and hA3 expressed on CHO cells). Firstly, cell fragments and nuclei were removed by using low-speed centrifugation (1,000 g for 10 min). After that, crude membrane fraction from supernatant was then sedimented at 100,000 g for 30 min. The membrane pellet was subsequently re-suspended in the specific binding buffer, frozen in liquid nitrogen and stored at -80°C. For measurement of adenylyl cyclase activity in the hA2B receptors, one-step centrifugation procedure was used; the homogenate was sedimented for 30 min at 54,000 g. The so-obtained crude membrane pellet was re-suspended in 50 mM Tris/HCl, pH 7.4 and used for the adenylyl cyclase assay immediately.
(§2) Non-specific binding was determined using theophylline 1 mM. […] Non-specific binding was determined using N^6-R-phenylisopropyl adenosine (R-PIA) 100 μM. ^41 The binding of [^3H]HEMADO to CHO cells transfected with hA3 adenosine receptors was carried out as described earlier. […] Non-specific binding was determined using R-PIA 100 μM.
(§3) The assay mixture was then filtered through the built-in filter at the bottom of the 96-well microplate filtration system (Millipore Multiscreen MAFC) and washed three times with 200 μL of cold buffer. After addition of 20 μL of scintillator to the dried filter plates, the filter bound radioactivity was counted on a Wallac Micro-Beta counter. All Ki values were calculated by non-linear curve fitting with the program SCTFIT [45].

In data set [2] the target is human dopamine D2 receptor (Homo sapiens, UniProt P14416). In words: D2R-proteopolymersomes-based fluorescence competition assay with BODIPY-NAPS. It is filed as binding. The conditions noted are these: + D2-ACM (D2R-proteopolymersomes); read-out: EC50 (D2 receptor, displacement of BODIPY-NAPS). Further details: made in house; host or cells: in vitro (cell-free) synthesis, inserted into polymersomes.
Sequence of human dopamine D2 receptor (P14416 whole entry): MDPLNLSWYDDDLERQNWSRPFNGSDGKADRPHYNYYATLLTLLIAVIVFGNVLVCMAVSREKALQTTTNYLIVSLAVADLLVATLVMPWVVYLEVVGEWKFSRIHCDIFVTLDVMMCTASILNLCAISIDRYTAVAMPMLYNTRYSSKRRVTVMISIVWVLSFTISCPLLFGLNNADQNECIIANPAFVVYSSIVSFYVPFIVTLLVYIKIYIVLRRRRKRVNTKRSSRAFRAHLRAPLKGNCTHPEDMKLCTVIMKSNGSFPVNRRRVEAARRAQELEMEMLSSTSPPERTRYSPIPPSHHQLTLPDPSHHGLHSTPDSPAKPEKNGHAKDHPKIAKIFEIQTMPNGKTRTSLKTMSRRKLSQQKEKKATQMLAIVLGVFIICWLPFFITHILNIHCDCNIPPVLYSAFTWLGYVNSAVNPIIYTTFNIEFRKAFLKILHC
Experimental: For the replacement assay, ABA-polymersomes were covalently attached to an amino-functionalized glass slide, which was then treated with isopropanol, ultrapure water and a N2-stream. […] Program ImageJ was used for determination of fluorescence intensities.

The target in data set [3] is T2, human A3 receptors expressed in CHO cells (Homo sapiens, UniProt P0DMS8).
T2 sequence (P0DMS8 1-318): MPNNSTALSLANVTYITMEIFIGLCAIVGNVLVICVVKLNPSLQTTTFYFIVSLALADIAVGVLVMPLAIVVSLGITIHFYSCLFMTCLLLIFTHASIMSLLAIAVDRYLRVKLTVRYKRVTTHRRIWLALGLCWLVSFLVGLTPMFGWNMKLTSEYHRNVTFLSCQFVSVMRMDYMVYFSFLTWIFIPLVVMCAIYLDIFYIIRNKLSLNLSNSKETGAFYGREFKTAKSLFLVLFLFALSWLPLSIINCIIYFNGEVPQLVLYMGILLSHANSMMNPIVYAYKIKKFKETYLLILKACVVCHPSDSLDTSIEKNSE
In words: competition binding at human A3 adenosine receptors ([3H]HEMADO displacement). The conditions noted are these: displacement of [3H]HEMADO, 95% confidence limits, n = 3–6, read-out: Ki hA3. Here is the method:
as §1, §2, §3
A general note: Displacement assays read how much labelled ligand stays bound in the presence of the test substance.

The test system of data set [4] is TAMH (TGF-α overexpressing mouse hepatocytes). Put plainly: cell viability assay in TAMH hepatocytes (Cell-Titer-Glo). In kind it is cell-based. Conditions: concentrations less than 30 μM, 24 h. Here is the method:
(§4) Besides the mutagenicity study, compounds 5 and 6 were also subjected to cell viability assays using transforming growth factor-alpha mouse hepatocyte (TAMH) and HL-1 cardiomyocyte to assess the cytotoxic potential. TAMH lines were treated with compounds 5 and 6 in eight different concentrations (100 μM, 33.3 μM, 11.1 μM, 3.7 μM, 1.23 μM, 0.41 μM, 0.13 μM, 0.045 μM), and the percentage of viable cells was plotted against the logarithm of ligand concentration (S10B and S10C Fig). […] Acetaminophen, a drug with direct hepatotoxic potential, was used as the positive control in this assay (S10A Fig). […] Doxorubicin, a chemotherapeutic agent known to cause dose-dependent cardiotoxicity, was used as the positive control in this assay (S10D Fig).
(§5) Immortalised hepatocyte and cardiomyocyte cell lines, TAMH (TGF-α overexpressing mouse hepatocytes) and HL-1 were used respectively as models for in vitro toxicity studies. Both cell lines were cultured in accordance with previously described methods. […] The cell-reagent mixture was transferred to a solid white flat-bottom 96-well plate (Greiner 655207) for luminescence reading. Luminescence was recorded with an integration time of 0.25 second with a Tecam Infinite® M200 Microplate reader. Data are expressed as percentage of viable cells compared to DMSO-treated controls. […]

Another data set concerns HL-1 cardiomyocyte. In words: cell viability assay in HL-1 cardiomyocytes (Cell-Titer-Glo). It is filed as cell-based. The conditions noted are these: concentrations less than 30 μM, 24 h. Here is the method:
as §4, §5

Broadly, the Ki is a dissociation constant, usually derived from enzyme kinetics or from competition with a known ligand. For orientation: EC50 means the midpoint of the concentration-response curve. For the compound `Cc1cc(C)nc(N2CCN(C(=O)c3c[nH]c4ccccc34)CC2)n1` [Compound 5, 3‐[4‐(4,6‐Dimethylpyrimidin‐2‐yl)piperazine‐1‐carbonyl]‐1H‐indole], the inhibition constant Ki in data set [1] and in data set [3] was over 100 µM each time. For the same compound, in data set [2], the concentration for a half-maximal effect (EC50) is 22.5 to 40.2 µM and 22.5 µM. The “cytotoxicity (cell viability)” value is “non-cytotoxic” in data set [4] and “no toxicity observed” with HL-1 cardiomyocyte.

Regarding `Cc1cc(C)nc(N2CCN(C(=O)Cc3c(C)[nH]c4ccccc34)CC2)n1` [Compound 6, 1‐[4‐(4,6‐Dimethylpyrimidin‐2‐yl)piperazin‐1‐yl]‐2‐(2‐methyl‐1H‐indol‐3‐yl)ethan‐1‐one], the Ki in data set [1] and in data set [3] was over 100 µM each time. Further, the EC50 in data set [2] is 22.5 to 40.2 µM and 40.2 µM. For the same compound, the “cytotoxicity (cell viability)” value is “non-cytotoxic” in data set [4] and “no toxicity observed” in the data set with HL-1 cardiomyocyte.
